Patent US11085050B2, “Elite event EE-GH7 and methods and kits for identifying such event in biological samples” (BASF AGRICULTURAL SOLUTIONS SEED, US LLC, priority 2016, dated 2021)

What was measured:
[1] = tested on: plants comprising EE-GH7; experiment: Field tolerance of plants comprising EE-GH7 to IFT, glyphosate and combinations; assay type: in vivo, cotton (Gossypium hirsutum)
Protocol: Tolerance of plants comprising EE-GH7 to IFT, to glyphosate and to combinations thereof, was tested at different locations in the field. […] Currently available data appear to indicate a performance which is at least equal to, or better than the performance of plants comprising EE-GH7 over plants comprising the hppd and epsps chimeric genes as described in WO2013/026740.

[2] = tested on: commercial cotton cultivars comprising EE-GH7; experiment: Herbicide tolerance after introgression of EE-GH7 into commercial cotton cultivars; assay type: in vivo, cotton (Gossypium hirsutum); settings: EE-GH7 introgressed by repeated back-crossing into commercial cultivars
Excerpt: This confirms the status of event EE-GH7 as an elite event.

In the case of `CS(=O)(=O)c1cc(C(F)(F)F)ccc1C(=O)c1cnoc1C1CC1` [IFT, (5-cyclopropyl-4-isoxazolyl)[2-(methylsulfonyl)-4-(trifluoromethyl)phenyl]methanone], the “Tolerance of plants comprising EE-GH7 to the herbicide” value ([1]; different locations, IFT alone, in particular applied before emergence) was “good tolerance” and the “Expression of the transgene as determined by herbicide tolerance” value [2] was “meets commercially acceptable levels”.
In the case of `O=C(O)CNCP(=O)(O)O` [glyphosate], the “Tolerance of plants comprising EE-GH7 to the herbicide” value ([1]; applied post emergence) was “good tolerance”, the “Glyphosate tolerance of plants comprising EE-GH7 compared with elite glyphosate tolerant event EE-GH3” value ([1]; versus EE-GH3 of WO2007/017186) was “equal to or better than” and the “Expression of the transgene as determined by herbicide tolerance” value [2] was “meets commercially acceptable levels”.
